Data published in patent US20140371262A1, “PREVENTIVE AND/OR THERAPEUTIC AGENT FOR THROMBOEMBOLISM IN THROMBOEMBOLISM PATIENT WITH SEVERE RENAL IMPAIRMENT” (Daiichi Sankyo Company, Limited, priority 2011, published 2014).

Legend:
NVAF patients = test: Late phase-II trial targeting NVAF patient in Japan (thromboembolic and bleeding events, 12 weeks); assay type: in vivo, human; details: warfarin group (PT-INR adjusted to 2.0 to 3.0; 1.6 to 2.6 for 70 years or older), 12 weeks
[1] = tested on: patients with moderate to-high-risk atrial fibrillation; test: ENGAGE-AF TIMI-48 phase 3 study of edoxaban versus warfarin in atrial fibrillation
[2] = subgroup whose CLCR had become <30 mL/min during the trial, edoxaban 15 mg (N = 349), warfarin dose adjusted (N = 367)
[3] = warfarin, dose-adjusted to INR 2.0 to 3.0

CC(=O)CC(c1ccccc1)c1c(O)c2ccccc2oc1=O (stereo not shown) [warfarin, reference compound]
Incidence of bleeding events (major, clinically relevant non-major and minor bleeding in total) (NVAF patients): 20.0%
ACM (all cause mortality): # of events [1, 2]: 13
Disabling Stroke: # of events [1, 2]: 3
Disabling Stroke: Event Rate [1, 2]: 0.48 %/yr
Fatal Bleed: # of events [1, 2]: 2
Fatal Bleed: Event Rate [1, 2]: 0.32 %/yr
Fatal SEE: # of events [1, 2]: 0
Fatal SEE: Event Rate [1, 2]: 0.00 %/yr
Fatal Stroke: # of events [1, 2]: 3
Fatal Stroke: Event Rate [1, 2]: 0.48 %/yr
First Disabling or Fatal Stroke, Fatal SEE, LT or Fatal Bleed, or ACM: # of events [1, 2]: 21
First Disabling or Fatal Stroke, Fatal SEE, LT or Fatal Bleed, or ACM: Event Rate [1, 2]: 3.36 %/yr
First Stroke, SEE or TIA: # of events [1, 2]: 14
First Stroke, SEE or TIA: Event Rate [1, 2]: 2.26 %/yr
First Stroke, SEE, Major Bleed, or ACM: # of events [1, 2]: 49
First Stroke, SEE, Major Bleed, or ACM: Event Rate [1, 2]: 8.04 %/yr
LT Bleed (life threatening): # of events [1, 2]: 5
LT Bleed (life threatening): Event Rate [1, 2]: 0.80 %/yr
Annualized rate of death from cardiovascular causes [1, 3]: 3.17%
Annualized rate of major bleeding [1, 3]: 3.43%
Annualized rate of the primary end point (stroke or systemic embolism) during treatment [1, 3]: 1.50%
Rate of the key secondary end point (composite of stroke, systemic embolism, or death from cardiovascular causes) [1, 3]: 4.43%
